We go through 22 compounds from patent US6869923B1, “Perfume compositions” (Procter & Gamble Company, priority 1998, dated 2005).

A value given as a limit tells only on which side of the number the result lay.

The test system of this test is panelist. Nature of the test: Odor detection threshold (ODT) by gas chromatograph with sniff port. Also noted: species or system human. To be noted: GC sniff port, average across panelists. As for the experimental part:
Odor detection thresholds are determined using a gas chromatograph. The gas chromatograph is calibrated to determine the exact volume of material injected by the syringe, the precise split ratio, and the hydrocarbon response using a hydrocarbon standard of known concentration and chain-length distribution. The air flow rate is accurately measured and, assuming the duration of a human inhalation to last […], the sampled volume is calculated. […] A panelist sniffs the GC effluent and identifies the retention time when odor is noticed. The average across all panelists determines the threshold of noticeability. […] Typical gas chromatograph parameters for determining odor detection thresholds are listed below. • GC: 5890 Series II with FID detector • 7673 Autosampler • Column: J&W Scientific DB-1 • Length 30 meters ID 0.25 mm film thickness 1 micron • Method: • Split Injection: 17/1 split ratio • Autosampler: 1.13 microliters per injection • Column Flow: 1.10 mL/minute • Air Flow: 345 mL/minute • Inlet Temp. 245° C. • Detector Temp. 285° C. • Temperature Information • Initial Temperature: 50° C. • Rate: 5 C/minute • Final Temperature: 280° C. • Final Time: 6 minutes • Leading assumptions: • (i) 12 seconds per sniff • (ii) GC air adds to sample dilution A-High Impact Accord (“HIA”) Perfume Ingredients of Class 1
`O=C1CCCC=CCCCCCCCCCC1` [5-Cyclohexadecenone-1] came in with an ODT of less than 50 PPB.

Compound `CCOC(=O)C(C)CC` (stereo not shown) [Ethyl-2-methyl Butyrate] displayed an ODT of less than 50 PPB.

Turning to `CC1COC(C)(c2ccc3c(c2)C(C)(C)CCC3(C)C)O1` (stereo not shown) [2,4,Dimethyl-2-(1,1,4,4 tetramethyl) tetralin-6-yl)-13-dioxolane], the ODT is less than 50 PPB. `C=CC(C)(O)CCC=C(C)C` (stereo not shown) [Linalool] had an ODT of less than 50 PPB. `CCC(=O)OC1CC2CC1C1CC=CC21` (stereo not shown) [Frutene] showed an ODT of less than 50 PPB.

Take Oxacyclohexadecen-2-one: the ODT is on record as less than 50 PPB. `CCCC(O)CCC1C(C)CCCC1(C)C` (stereo not drawn) [Cyclohexane Propanol 2,2,6 Trimethyl-Alpha-Propyl.] yielded an ODT of less than 50 PPB. The result for `CC(=O)C1(C)CC2=C(CCCC2(C)C)CC1C` (stereo not shown) [7,Acetyl,1,2,3,4,5,6,7,8-Octahydro-1,1,6,7-Tetra Methyl Naphthalene] reads less than 50 PPB; that for `CC1C(C)(C)C2=C(C(=O)CCC2)C1(C)C` (stereo not shown) [6,7Dihydro-1,1,2,3,3-Penta-Methyl-4(5H)-Indanone], less than 50 PPB. Take `CC1=CCC(C=CC(C)C(C)O)C1(C)C` (stereo not shown) [3-Methyl-5-(2,2,3,trimethyl-3-cyclopenten-1-yl)-4-penten-2-ol]: the ODT is recorded as less than 50 PPB. On to `CC/C=C\CCOC(=O)c1ccccc1O` [Cis-3-Hexenyl Salicylate], for which the ODT is less than 50 PPB. In turn, `CCCCCCC#CC(=O)OC` [Methyl Octine Carbonate] gave an ODT of less than 50 PPB. With `CC1=CCC(C(C)CC2CCCC2=O)CC1` (stereo not shown) [2-(2-(4 methyl-3-Cyclohexen-1-yl)propyl)-cyctopentanone.], the ODT is listed as less than 50 PPB.

In turn, `COc1ccc(C=O)cc1` [Anisic Aldehyde] came in with an ODT of less than 50 PPB. The result for 3-Methyl-4(5)-Cyclopentadecenone reads less than 50 PPB; that for `CC(C)=CC1CC(C)CCO1` (stereo not shown) [Rose Oxide], less than 50 PPB.

Consider `CC1=CC(C)C(C=O)CC1` (stereo not shown) [Cyclal C], for which the ODT was less than 50 PPB. `CCCCCCCCCCC=CC#N` [Tridecene-2-nitrile] showed an ODT of less than 50 PPB. In turn, `CC(CO)C1CCCCCCCCCCC1` (stereo not shown) [2-(Cyclododecyl)-propan-1-ol] had an ODT of less than 50 PPB.

Take `CC(=O)OC1CC2CC1C1CC=CC21` (stereo not shown) [Flor Acetate]: the ODT is on record as less than 50 PPB. For `CC(=O)/C=C/C1=C(C)CCCC1(C)C` [Ionone Beta], the ODT is on record as less than 50 PPB. Turning to `CCC12CCC3C(C)(C)CCCC3(C)C1CCO2` (stereo not shown) [Naphtho(2.1-B)-furan,3A-Ethyl Dodecahydro-6,6,9A-Trimethyl], the ODT is listed as less than 50 PPB.
